Entries after “also recorded” stand apart in the source; their conditions may differ. Read-outs that look alike come from different tables or passages of the source.
Assays:
[1] = molecular target: T1, Hop TPR2A-Hsp90 MEEVD interaction (Homo sapiens, UniProt P31948); assay: LANCE (TR-FRET) proximity assay of Hop TPR2A binding to biotin-Hsp90 MEEVD peptide; conditions: for LE (ligand efficiency): approximated from LANCE IC50 values using number of heavy atoms
T1 construct: The TPR2A domain of human Hop, residues 218-350, was cloned from full-length Hop cDNA; made in house; host or cells: Escherichia coli BL21 (DE3) pLysS
Method: Compounds containing succinic acid substructures were therefore selected to mimic the natural carboxylate clamp interaction between the Hsp90 C-terminus and TPR cochaperones. […] In this assay, compounds that block the protein-peptide interaction cause a loss in fluorescent signal.
The labelling reagents used were Surelight APC-SA and LANCE Eu-1024 Anti-6xHis (both PerkinElmer). Assays were performed in black low volume 384-well plates (Corning) with a total volume of 20 μl per well in assay buffer of 20 mM HEPES pH 7.4, 100 mM NaCl, 1 mM DTT, 0.1% Tween-20. […] Compound stocks to be screened were individually corrected to approximately neutral pH due to their highly acidic nature and dispensed using a Labcyte Echo acoustic dispenser.
Raw fluorescence or luminescence values from compound screening were converted to % inhibition of the total assay signal. IC50 values were determined by plotting % inhibition against the log10 of inhibitor concentration and fitted using a variable slope, four-parameter concentration–response curve using a robust fit in GraphPad Prism. […] To generate IC50 values, assays were repeated independently 3 times with duplicate or triplicate wells for each run. […] Ligand efficiency (LE) was approximated from LANCE biochemical IC50 values using the number of heavy atoms (HA)[67].

Hop TPR2A = molecular target: T2, Hop TPR2A (Homo sapiens, UniProt P31948); assay: NMR 1H-15N HSQC chemical shift perturbation (CSP) titration; format: binding; conditions: for Kd: Mean ± S.D. for 10 fitted residues
T2 construct: The TPR2A domain of human Hop, residues 218-350, was cloned from full-length Hop cDNA; 6xHis (N, cleaved yes); made in house; host or cells: Escherichia coli BL21 (DE3) pLysS
Method: Chemical shift perturbation (CSP) experiments were carried out on protein and compound mixtures to characterise protein–ligand interactions. ^1H-^15N HSQC spectra were collected on 200 μl samples in 20 mM Na2HPO4 pH 6.5, 50 mM NaCl, 1 mM DTT with 10% D2O in 3 mm NMR tubes (GPE Scientific). […] Each sample was prepared with 100 μM protein while compound or peptide concentration varied according to the experiment. Where possible, compound or peptide stocks were made up in NMR buffer to minimise buffer effects on the spectra. Compounds were otherwise diluted from DMSO stocks maintaining a maximum final DMSO concentration of 3% v/v. HSQC spectra of the protein with DMSO in the buffer were collected as controls. ^1H–^15N HSQC spectra were collected using standard pulse sequences.
Changes in chemical shifts (∆δ) were calculated for each backbone assigned N–H peak using a weighted CSP[70]. In order to visualise the locations of the largest shifts the ∆δ values were edited into a Hop TPR2A PDB file (in place of B-factors) and represented as surface heat maps in PyMol. Kd values from CSP titrations were calculated from HSQC spectra collected at a series of increasing compound concentrations[58], plots are representative of one titration for several different residues.
Chemical shift perturbation (CSP) experiments and Kd determination
Changes in chemical shifts were determined by tracking ligand shifted HSQC peaks in
NMRView and exporting the resultant peak lists to Excel. In Excel, using appropriate lists of
control peaks the change in chemical shift (Dd) was calculated for each backbone assigned
N-H peak using Equation S1.
(Equation S1) Δδ = %Δ𝛿!! + (0.2Δ𝛿#) -
Where Δ𝛿!! is the change in proton chemical shift, and Δ𝛿# is the change in nitrogen chemical
shift. Using a scaling factor (0.2) normalises the difference in magnitude of chemical shifts at
these two nuclei, various scaling factors are used in the literature and a value of 0.2 has been
To estimate Kd values from CSP titrations HSQC spectra were collected at a series of
increasing compound concentrations, peak lists for each concentration were generated and
exported to Excel. Then using GraphPad Prism the Dd values for each concentration were
fitted by non-linear regression to Equation S2, taken from Fielding 2007 equation 16 (see also
Williamson 2013 equation 6 for the derivation).
(Equation S2) Δ𝛿 = Δ𝛿&’( "[0]
In which Δ𝛿 is the adjusted chemical shift change, Δ𝛿&’( is the chemical shift change at
saturation, [𝑃]7 the total protein concentration, 𝐾8 the equilibrium dissociation constant, and
[𝐿]7the total ligand concentration. Here the Δ𝛿&’( was taken to be the observed Δ𝛿 at the
highest [𝐿]7. Except in cases where this was clearly far from saturation, when this variable
was not constrained during the curve fit.
Determining dissociation constants using CSP titrations requires that the experimental [P] is
high enough that the signal to noise of the experiment is sufficient while falling into a suitable
range for accurate curve fitting using equation S2.

[2] = test system: FLAG-tagged Hsp90 complexes (TPR cochaperone association) from HCT116 cells; assay: FLAG co-immunoprecipitation Western blot of Hsp90 complexes; format: biochemical, human
Hsp90 (Homo sapiens) = assay: ITC; conditions: cited from earlier work
[3] = n = 3 independent experiments, duplicate wells, Mean ± S.D.

T1 sequence (P31948 218-350): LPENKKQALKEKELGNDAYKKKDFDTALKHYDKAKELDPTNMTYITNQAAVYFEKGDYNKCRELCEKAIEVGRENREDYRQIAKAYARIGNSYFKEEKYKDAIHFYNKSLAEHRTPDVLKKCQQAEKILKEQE
T2 sequence (P31948 218-350): as above
Hop TPR2A (from UniProt P31948), sequence (P31948 223-352): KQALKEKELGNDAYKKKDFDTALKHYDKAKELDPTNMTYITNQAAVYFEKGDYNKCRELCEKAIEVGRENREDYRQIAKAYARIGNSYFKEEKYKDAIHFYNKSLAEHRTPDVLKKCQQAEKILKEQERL

Cc1cccc(C2c3[nH]c4ccccc4c3CC3C(=O)N(c4ccccc4C(=O)O)C(=O)N32)c1 (stereo not shown) [Compound 11]
LE (ligand efficiency) [1]: 0.17 | IC50 [1, 3]: 80 ± 5.8 µM | Kd (Hop TPR2A): 177 ± 13 µM | CSP ∆δ (Hop TPR2A; residue Arg305): 0.38 ppm | CSP ∆δ (Hop TPR2A; residue Asn264): 0.36 ppm | CSP ∆δ (Hop TPR2A; residue Asn308): 0.12 ppm | CSP ∆δ (Hop TPR2A; residue Lys301): 0.1 ppm | TPR cochaperone association with Hsp90 complexes ([2]; added to HCT116 cell lysate, N = 1, qualitative): not | TPR cochaperone association with Hsp90 complexes ([2]; added to purified Hsp90 complexes, N = 1, preliminary, qualitative): reduce TPR cochaperone association; also recorded: may disrupt binding of Hop and another TPR cochaperone, PP5

Hop TPR2A (from UniProt P31948)
Kd (Hsp90 (Homo sapiens)): 11 µM

O=C(O)/C=C\C(=O)O [Compound 2]
LE (ligand efficiency) [1]: 0.47 | IC50 [1, 3]: 2170 µM

Cc1ccccc1C1c2[nH]c3ccccc3c2CC2C(=O)N(c3ccccc3C(=O)O)C(=O)N21 (stereo not shown) [Compound 12]
LE (ligand efficiency) [1]: 0.17 | IC50 [1, 3]: 94 ± 6.4 µM | Kd (Hop TPR2A): 352 ± 39 µM

O=C(O)CCC(=O)O [Compound 1, succinic acid]
IC50 [1]: ~4000 µM | LE (ligand efficiency) [1]: 0.42 | IC50 [1, 3]: 3960 µM

COc1ccc(C2c3[nH]c4ccccc4c3CC3C(=O)N(c4ccccc4C(=O)NC(CC(=O)O)C(=O)O)C(=O)N32)cc1 (stereo not shown) [Compound 7]
LE (ligand efficiency) [1]: 0.13 | IC50 [1, 3]: 74 ± 3.2 µM

COc1cccc(C2c3[nH]c4ccccc4c3CC3C(=O)N(c4ccccc4C(=O)NCC(=O)O)C(=O)N32)c1 (stereo not shown) [Compound 8]
LE (ligand efficiency) [1]: 0.13 | IC50 [1, 3]: 311 ± 37 µM

Cc1ccc(C2c3[nH]c4ccccc4c3CC3C(=O)N(c4ccccc4C(=O)O)C(=O)N32)cc1 (stereo not shown) [Compound 10]
LE (ligand efficiency) [1]: 0.15 | IC50 [1, 3]: 234 ± 75 µM | Kd (Hop TPR2A): 729 ± 164 µM

COc1cccc(C2c3[nH]c4ccccc4c3CC3C(=O)N(c4ccc(C(=O)O)cc4)C(=O)N32)c1 (stereo not shown) [Compound 13]
LE (ligand efficiency) [1]: 0.12 | drop in LANCE activity compared to 11 ([1]; carboxylic acid at R2 moved from ortho to para): more than tenfold drop in activity | IC50 [1, 3]: 1180 µM

O=C(O)c1ccccc1N1C(=O)C2Cc3c([nH]c4ccccc34)C(c3ccccc3)N2C1=O (stereo not shown) [Compound 9]
LE (ligand efficiency) [1]: 0.14 | IC50 [1, 3]: 452 ± 14 µM | Kd (Hop TPR2A): 1410 µM

Source: article PMC7524759, “Solution structure of the Hop TPR2A domain and investigation of target druggability by NMR, biochemical and in silico approaches” (Scientific Reports, 2020)
